Source: paper PMC6072100, “Exploring the links between peptoid antibacterial activity and toxicity” (MedChemComm, 2017)
Square brackets hold non-standard residues; d marks the D form. Peptide text beside a SMILES is read from it. Gly(N-(CH2)6NH2) = NCCCCCCNCC(=O)O; Gly(N-2-aminoethyl) = NCCNCC(=O)O; Nspe = C[C@H](NCC(=O)O)c1ccccc1; NhArg = N=C(N)NCCCCNCC(=O)O; NPentylGly = CCCCCNCC(=O)O; Nlys = NCCCCNCC(=O)O

What was measured:
[1] = Skin cell toxicity assay with HaCaT (alamarBlue); assay type: cell-based, human; conditions: human, HaCaT cells (keratinocytes)
Summary of the method: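 HaCaT cells seeded at 2x10^4 per well 24 hours before 1-hour exposure to a 2–100 µM triplicate dilution series in DMEM high glucose with 10% FBS at 37 °C, 5% CO2. Viability assessed with alamarBlue; ED50 defined as dose killing 50% of cells, derived from dose-response data.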

[2] = Cytotoxicity assay with HepG2 (alamarBlue); assay type: cell-based, human; conditions: human, HepG2 cells
Protocol: The activity of our peptoid library was assessed against both bacterial and mammalian cells to gain a broader understanding of the factors that lead to effective and selective antimicrobial peptoids. We screened for broad-spectrum antibacterial activity against Gram-negative (Escherichia coli and Pseudomonas aeruginosa) and Gram-positive (Staphylococcus aureus and S. epidermidis) bacteria. The toxicity of the library was also assessed against two mammalian cell lines; HaCaT spontaneously transformed aneuploid keratinocytes were employed to model toxicity against human skin cells and HepG2, a cell line derived from a human liver carcinoma, were used as a study on polarised human hepatocytes. Detailed methods for these assays can be found in the ESI. ^‡ […]
Please note – ED50, the median effective dose, was defined as the dose that kills 50% of cells.
Cytotoxicity analyses were performed in 96-well plates (Costar, Fisher Scientific) using alamarBlue® (Invitrogen) for cell viability detection using a modified protocol as described previously. HepG2 or HaCaT cells were subcultured at 37 °C, 5% CO2 in DMEM high glucose supplemented with heat-inactivated foetal bovine sera (FBS, 10%; Biosera Ltd) and penicillin/streptomycin (P/S, 1%). Cells were counted using a Neubauer Improved Haemocytometer. HepG2 cells were seeded 1 day prior to treatment in 96 well plates at a concentration of 2 × 10^5 cells per mL in 100 μL of medium (2 × 10^4 cells per well). Then cells were pre-incubated with the compounds in triplicate in a dilution series in triplicate from 2–100 μM (5 mM stock solutions in DMSO diluted from 100 μM to 3 μM; untreated cells with DMSO as a negative control) in 50 μl of the media for 1 hour. Afterwards, 40 μL were removed from each well before the addition of 90 μL of the media, followed by incubation for 24 hours at 37 °C, 5% CO2. Then, 10 μL of alamarBlue® (Invitrogen) was added to each well before a 2 hour incubation prior to assessing cell viability using a fluorescent plate reader (Biotek; Ex 560 nm/Em 600 nm). All data were measured in triplicate on a minimum of two occasions to ensure a robust data set was collected. The ED50 values were calculated from the dose response results achieved from the serial dilutions.
Cytotoxicity assay with HepG2
Cytotoxicity analyses were performed in 96-well plates (Costar, Fisher Scientific) using alamarBlue® (Invitrogen) for cell viability detection using a modified protocol as previously described. The HepG2 cells were grown at 37 °C, 5% CO2 in DMEM high glucose supplemented with heat-inactivated foetal bovine sera (FBS, 10%; Biosera Ltd) and penicillin/streptomycin (P/S, 1%). Cells were counted using a Neubauer Improved Haemocytometer. HepG2 cells were seeded 1 day prior to treatment in 96 well plates at a concentration of 2x10^5 cells/mL in 100 µL of medium (2x10^4 cells/well). Then cells were pre-incubated with the compounds in triplicate (5 mM stock solutions in DMSO diluted from 100 µM to 3 µM; untreated cells with DMSO as a negative control) in 50 µl of the media for 1 hour.
Afterwards, 40 µL were removed from each well before the addition of 90 µL of the media, followed by incubation for 24 hours at 37 °C, 5% CO2. Then, 10 µL of alamarBlue® (Invitrogen) was added to each well before a 2 hour incubation prior to assessing cell viability using a fluorescent plate reader (Biotek; Ex 560 nm / Em 600 nm). All data was measured in triplicate on a minimum of two occasions to ensure a robust data set was collected. The ED50 values were calculated from the dose response results achieved from the serial dilutions. […]
5% CO2 in DMEM high glucose supplemented with heat-inactivated foetal bovine sera (FBS, 10%; Biosera Ltd) and penicillin/streptomycin (P/S, 1%). Cells were counted using a Neubauer […]
Empty wells were filled with 100 µL PBS. After 24 hours, cells were incubated with the compounds in a dilution series in triplicate from 2 – 100 µM (5 mM stock solutions in DMSO […]

[3] = dose that kills 50% of cells, 2–100 μM, 1 h with compound then 24 h, alamarBlue, read-out: ED50 HaCaT
[4] = dose that kills 50% of cells, 2–100 μM, 1 h with compound then 24 h, alamarBlue, read-out: ED50 HepG2

Structure (SMILES)	CC50 at 24 h [1, 3] [µM]	CC50 at 24 h [2, 4] [µM]	CC50 at 24 h ([1]; ED50 HaCaT) [µM]	CC50 at 24 h ([2]; ED50 HepG2) [µM]
C[C@@H](c1ccccc1)N(CC(N)=O)C(=O)CN(Cc1ccc(F)cc1)C(=O)CN(CCCCN)C(=O)CN(C(=O)CN(Cc1ccc(F)cc1)C(=O)CN(CCCCN)C(=O)CN(C(=O)CN(Cc1ccc(F)cc1)C(=O)CNCCCCN)[C@@H](C)c1ccccc1)[C@@H](C)c1ccccc1 [Peptoid 27, (NLysNpfbNspe)3]	52	36	–	–
C[C@@H](c1ccccc1)N(CC(N)=O)C(=O)CN(C(=O)CN(CCN)C(=O)CN(C(=O)CN(C(=O)CNCCN)[C@@H](C)c1ccccc1)[C@@H](C)c1ccccc1)[C@@H](C)c1ccccc1 [Peptoid 18, (NaeNspeNspe)2]	–	–	100	100
C[C@@H](c1ccccc1)N(CC(N)=O)C(=O)CN(C(=O)CN(CCCCN)C(=O)CN(C(=O)CN(C(=O)CNCCCCN)[C@@H](C)c1ccccc1)[C@@H](C)c1ccccc1)[C@@H](C)c1ccccc1 [Peptoid 15, (NLysNspeNspe)2] (H-[Nlys][Nspe][Nspe][Nlys][Nspe][Nspe]-NH2)	–	–	100	100
CCCCCNCC(=O)N(CC(=O)N(CC(=O)N(CCCCNC(=N)N)CC(=O)N(CC(=O)N(CC(=O)N(CCCCC)CC(=O)N(CC(=O)N(CC(=O)N(CCCCNC(=N)N)CC(=O)N(CC(=O)N(CC(N)=O)[C@@H](C)c1ccccc1)[C@@H](C)c1ccccc1)[C@@H](C)c1ccccc1)[C@@H](C)c1ccccc1)[C@@H](C)c1ccccc1)[C@@H](C)c1ccccc1)[C@@H](C)c1ccccc1)[C@@H](C)c1ccccc1 [Peptoid 40, [(NamyNspeNspe)(NhArgNspeNspe)]2] (H-[NPentylGly][Nspe][Nspe][NhArg][Nspe][Nspe][NPentylGly][Nspe][Nspe][NhArg][Nspe][Nspe]-NH2)	–	–	31	24
C[C@@H](c1ccccc1)N(CC(N)=O)C(=O)CN(C(=O)CN(CCCCN)C(=O)CN(C(=O)CN(C(=O)CN(CCCCN)C(=O)CN(C(=O)CN(C(=O)CNCCCCN)[C@@H](C)c1ccccc1)[C@@H](C)c1ccccc1)[C@@H](C)c1ccccc1)[C@@H](C)c1ccccc1)[C@@H](C)c1ccccc1 [Peptoid 14, (NLysNspeNspe)3] (H-[Nlys][Nspe][Nspe][Nlys][Nspe][Nspe][Nlys][Nspe][Nspe]-NH2)	100	100	–	–
C[C@@H](c1ccccc1)N(CC(N)=O)C(=O)CN(C(=O)CN(CCCCCCN)C(=O)CN(C(=O)CN(C(=O)CN(CCCCCCN)C(=O)CN(C(=O)CN(C(=O)CN(CCCCCCN)C(=O)CN(C(=O)CN(C(=O)CNCCCCCCN)[C@@H](C)c1ccccc1)[C@@H](C)c1ccccc1)[C@@H](C)c1ccccc1)[C@@H](C)c1ccccc1)[C@@H](C)c1ccccc1)[C@@H](C)c1ccccc1)[C@@H](C)c1ccccc1 [Peptoid 10, (NahNspeNspe)4] (H-[Gly(N-(CH2)6NH2)][Nspe][Nspe][Gly(N-(CH2)6NH2)][Nspe][Nspe][Gly(N-(CH2)6NH2)][Nspe][Nspe][Gly(N-(CH2)6NH2)][Nspe][Nspe]-NH2; N-terminus assumed)	–	–	23	41
C[C@@H](c1ccccc1)N(CC(N)=O)C(=O)CN(C(=O)CN(CCCCCCN)C(=O)CN(C(=O)CN(C(=O)CN(CCCCCCN)C(=O)CN(C(=O)CN(C(=O)CNCCCCCCN)[C@@H](C)c1ccccc1)[C@@H](C)c1ccccc1)[C@@H](C)c1ccccc1)[C@@H](C)c1ccccc1)[C@@H](C)c1ccccc1 [Peptoid 11, (NahNspeNspe)3] (H-[Gly(N-(CH2)6NH2)][Nspe][Nspe][Gly(N-(CH2)6NH2)][Nspe][Nspe][Gly(N-(CH2)6NH2)][Nspe][Nspe]-NH2)	–	–	100	100
CCCCCNCC(=O)N(CC(=O)N(CC(=O)N(CCCCN)CC(=O)N(CC(=O)N(CC(=O)N(CCCCN)CC(=O)N(CC(=O)N(CC(=O)N(CCCCN)CC(=O)N(CC(=O)N(CC(N)=O)[C@@H](C)c1ccccc1)[C@@H](C)c1ccccc1)[C@@H](C)c1ccccc1)[C@@H](C)c1ccccc1)[C@@H](C)c1ccccc1)[C@@H](C)c1ccccc1)[C@@H](C)c1ccccc1)[C@@H](C)c1ccccc1 [Peptoid 30, (NamyNspeNspe)[(NLysNspeNspe)]3]	–	–	12	15
C[C@@H](c1ccccc1)N(CC(N)=O)C(=O)CN(C(=O)CN(CCN)C(=O)CN(C(=O)CN(C(=O)CN(CCN)C(=O)CN(C(=O)CN(C(=O)CN(CCN)C(=O)CN(C(=O)CN(C(=O)CNCCN)[C@@H](C)c1ccccc1)[C@@H](C)c1ccccc1)[C@@H](C)c1ccccc1)[C@@H](C)c1ccccc1)[C@@H](C)c1ccccc1)[C@@H](C)c1ccccc1)[C@@H](C)c1ccccc1 [Peptoid 16, (NaeNspeNspe)4] (H-[Gly(N-2-aminoethyl)][Nspe][Nspe][Gly(N-2-aminoethyl)][Nspe][Nspe][Gly(N-2-aminoethyl)][Nspe][Nspe][Gly(N-2-aminoethyl)][Nspe][Nspe]-NH2)	–	–	26	41
